The source of these data is BindingDB's records for patent US11472811 (BEIGENE, LTD., 2022).

A word on the IC50: it is the midpoint of a concentration-inhibition curve.

The target in the assay is Adenosine receptor A2a (Homo sapiens, UniProt P29274). In words: Luciferase Reporter Assay. The protocol: HEK293-A2AR-luc2p/CRE/Hygro cells were seeded at a density of 5,000 cells/well in DMEM with 1% FBS and 1 U/mL adenosine deaminase (ADA) (Sigma). After 18 h, the cells were treated with 3 nM CGS21680 plus a series dilution of A2AR antagonist, the compounds disclosed herein at the concentration of 0.1 10000 nM, prepared in DMEM with 1% FBS. After 5 h incubation, the luciferase activity in cells were measured using the Bright-Glo Luciferase Assay System (Promega) according to manufacturer's instructions. The luminescence signal was measured using a PHERAstar FS plate reader (BMG Labtech). […] Maximal luminescence intensity was determined in the presence of 3 nM CGS21680 and was set as 100%. The IC50 value was calculated from a dose dependent inhibition curve across the range of compound concentrations.
Sequence of Adenosine receptor A2a (P29274 whole entry): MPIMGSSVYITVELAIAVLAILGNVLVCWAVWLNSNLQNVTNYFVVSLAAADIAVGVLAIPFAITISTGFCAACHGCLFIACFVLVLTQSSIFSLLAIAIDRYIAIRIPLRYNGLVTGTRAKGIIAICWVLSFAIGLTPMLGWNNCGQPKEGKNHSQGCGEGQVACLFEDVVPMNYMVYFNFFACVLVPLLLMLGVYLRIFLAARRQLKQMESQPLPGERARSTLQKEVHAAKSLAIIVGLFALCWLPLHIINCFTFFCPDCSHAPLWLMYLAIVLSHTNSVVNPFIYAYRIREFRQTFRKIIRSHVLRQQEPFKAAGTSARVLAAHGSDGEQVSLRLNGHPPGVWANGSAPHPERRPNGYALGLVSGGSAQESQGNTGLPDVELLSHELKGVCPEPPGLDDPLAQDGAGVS

In turn, `C[C@@](C(=O)O)(c1ccccc1)n1ncc2c1nc(N)n1nc(-c3ccco3)nc21` [US11472811, Example Intermediate-Ia] showed an IC50 of 194 nM.
